Species on record: Rattus norvegicus
Assay: Open TG-GATES - Regimen: Daily Repeat
Type: toxicity, organism-based, Sprague-Dawley
Set-up: regimen Daily Repeat, gender Male, age 6 weeks
Conditions: in vivo, po, 300 mg/kg, route gavage, dose level Middle; for APTT / Bas / Eos / Fbg / Hb / Ht / Lym / MCH / MCHC / MCV / Mono / Neu / PT / Plat / RBC / Ret / WBC: tissue Blood; for KIDNEY_L / KIDNEY_R / KIDNEY_TOTAL: tissue Kidney; for LIVER: tissue Liver; for A/G / ALP / ALT / AST / BUN / CRE / Ca / Cl / DBIL / GLC / IP / K / LDH / Na / PL / RALB / TBIL / TC / TG / TP / gamma-GTP: tissue Plasma

CN/C(=N/CCSCc1nc[nH]c1C)NC#N [CIMETIDINE]
TERMINAL_BW (72 h, time 3 day): 228.5 g
APTT (72 h, time 3 day): 18.9 s
Bas (72 h, time 3 day): 0%
Eos (72 h, time 3 day): 1%
Fbg (72 h, time 3 day): 228.2 mg/dL
Hb (72 h, time 3 day): 13.1 g/dL
Ht (72 h, time 3 day): 39.2%
Lym (72 h, time 3 day): 80%
MCH (72 h, time 3 day): 21.3 pg
MCHC (72 h, time 3 day): 33.6%
MCV (72 h, time 3 day): 63.5 fL
Mono (72 h, time 3 day): 2.6%
Neu (72 h, time 3 day): 14.8%
PT (72 h, time 3 day): 12.4 s
Plat (72 h, time 3 day): 125.9 x10_4/uL
RBC (72 h, time 3 day): 616.6 x10_4/ul
Ret (72 h, time 3 day): 6%
WBC (72 h, time 3 day): 104.1 x10_2/uL
KIDNEY_L (72 h, time 3 day): 1 g
KIDNEY_R (72 h, time 3 day): 1 g
KIDNEY_TOTAL (72 h, time 3 day): 2 g
LIVER (72 h, time 3 day): 11.4 g
A/G (72 h, time 3 day): 1.6
ALP (72 h, time 3 day): 1094.2 IU/L
ALT (72 h, time 3 day): 37.6 IU/L
AST (72 h, time 3 day): 67.2 IU/L
BUN (72 h, time 3 day): 15.8 mg/dL
CRE (72 h, time 3 day): 0.4 mg/dL
Ca (72 h, time 3 day): 11.1 mg/dL
Cl (72 h, time 3 day): 102.4 meq/L
DBIL (72 h, time 3 day): 0.1 mg/dL
GLC (72 h, time 3 day): 195 mg/dL
IP (72 h, time 3 day): 7.2 mg/dL
K (72 h, time 3 day): 4.1 meq/L
LDH (72 h, time 3 day): 140.8 IU/L
Na (72 h, time 3 day): 140.8 meq/L
PL (72 h, time 3 day): 156.2 mg/dL
RALB (72 h, time 3 day): 3.5 g/dL
TBIL (72 h, time 3 day): 0.2 mg/dL
TC (72 h, time 3 day): 79.2 mg/dL
TG (72 h, time 3 day): 119.8 mg/dL
TP (72 h, time 3 day): 5.7 g/dL
gamma-GTP (72 h, time 3 day): 0.6 IU/L
TERMINAL_BW ([…], time 7 day): 259.4 g
TERMINAL_BW ([…], time 14 day): 317.5 g
TERMINAL_BW ([…], time 28 day): 390.1 g
APTT ([…], time 7 day): 19.2 s
Bas ([…], time 7 day): 0%
Eos ([…], time 7 day): 1%
Fbg ([…], time 7 day): 222.6 mg/dL
Hb ([…], time 7 day): 13.6 g/dL
Ht ([…], time 7 day): 40.9%
Lym ([…], time 7 day): 78.2%
MCH ([…], time 7 day): 21 pg
MCHC ([…], time 7 day): 33.1%
MCV ([…], time 7 day): 63.2 fL
Mono ([…], time 7 day): 2.6%
Neu ([…], time 7 day): 16.6%
PT ([…], time 7 day): 12.6 s
Plat ([…], time 7 day): 127.8 x10_4/uL
RBC ([…], time 7 day): 646.8 x10_4/ul
Ret ([…], time 7 day): 5.3%
WBC ([…], time 7 day): 107.7 x10_2/uL
APTT ([…], time 14 day): 18.9 s
Bas ([…], time 14 day): 0%
Eos ([…], time 14 day): 1%
Fbg ([…], time 14 day): 222.4 mg/dL
Hb ([…], time 14 day): 14.2 g/dL
Ht ([…], time 14 day): 42.9%
Lym ([…], time 14 day): 80%
MCH ([…], time 14 day): 20 pg
MCHC ([…], time 14 day): 32.9%
MCV ([…], time 14 day): 60.6 fL
Mono ([…], time 14 day): 2.8%
Neu ([…], time 14 day): 15.8%
PT ([…], time 14 day): 12.7 s
Plat ([…], time 14 day): 125.7 x10_4/uL
RBC ([…], time 14 day): 709.6 x10_4/ul
Ret ([…], time 14 day): 4.3%
WBC ([…], time 14 day): 117.5 x10_2/uL
APTT ([…], time 28 day): 18.7 s
Bas ([…], time 28 day): 0%
Eos ([…], time 28 day): 1%
Fbg ([…], time 28 day): 225.2 mg/dL
Hb ([…], time 28 day): 14.6 g/dL
Ht ([…], time 28 day): 42.1%
Lym ([…], time 28 day): 82.6%
MCH ([…], time 28 day): 19.5 pg
MCHC ([…], time 28 day): 34.6%
MCV ([…], time 28 day): 56.3 fL
Mono ([…], time 28 day): 2.2%
Neu ([…], time 28 day): 13.2%
PT ([…], time 28 day): 13 s
Plat ([…], time 28 day): 108.2 x10_4/uL
RBC ([…], time 28 day): 747.2 x10_4/ul
Ret ([…], time 28 day): 2.5%
WBC ([…], time 28 day): 140.1 x10_2/uL
KIDNEY_L ([…], time 7 day): 1.1 g
KIDNEY_R ([…], time 7 day): 1.1 g
KIDNEY_TOTAL ([…], time 7 day): 2.2 g
KIDNEY_L ([…], time 14 day): 1.2 g
KIDNEY_R ([…], time 14 day): 1.2 g
KIDNEY_TOTAL ([…], time 14 day): 2.4 g
KIDNEY_L ([…], time 28 day): 1.4 g
KIDNEY_R ([…], time 28 day): 1.4 g
KIDNEY_TOTAL ([…], time 28 day): 2.8 g
LIVER ([…], time 7 day): 12.3 g
LIVER ([…], time 14 day): 14.6 g
LIVER ([…], time 28 day): 16.3 g
A/G ([…], time 7 day): 1.5
ALP ([…], time 7 day): 951.8 IU/L
ALT ([…], time 7 day): 32.2 IU/L
AST ([…], time 7 day): 64.6 IU/L
BUN ([…], time 7 day): 17.6 mg/dL
CRE ([…], time 7 day): 0.4 mg/dL
Ca ([…], time 7 day): 10.8 mg/dL
Cl ([…], time 7 day): 102.4 meq/L
DBIL ([…], time 7 day): 0.094 mg/dL
GLC ([…], time 7 day): 234.6 mg/dL
IP ([…], time 7 day): 7.6 mg/dL
K ([…], time 7 day): 3.8 meq/L
LDH ([…], time 7 day): 168 IU/L
Na ([…], time 7 day): 141.4 meq/L
PL ([…], time 7 day): 156.2 mg/dL
RALB ([…], time 7 day): 3.4 g/dL
TBIL ([…], time 7 day): 0.1 mg/dL
TC ([…], time 7 day): 73.4 mg/dL
TG ([…], time 7 day): 120 mg/dL
TP ([…], time 7 day): 5.6 g/dL
gamma-GTP ([…], time 7 day): 1.4 IU/L
A/G ([…], time 14 day): 1.4
ALP ([…], time 14 day): 1080.4 IU/L
ALT ([…], time 14 day): 37.8 IU/L
AST ([…], time 14 day): 65.8 IU/L
BUN ([…], time 14 day): 19.2 mg/dL
CRE ([…], time 14 day): 0.4 mg/dL
Ca ([…], time 14 day): 10.5 mg/dL
Cl ([…], time 14 day): 102 meq/L
DBIL ([…], time 14 day): 0.1 mg/dL
GLC ([…], time 14 day): 216.2 mg/dL
IP ([…], time 14 day): 7.2 mg/dL
K ([…], time 14 day): 3.9 meq/L
LDH ([…], time 14 day): 176.4 IU/L
Na ([…], time 14 day): 140.6 meq/L
PL ([…], time 14 day): 164.2 mg/dL
RALB ([…], time 14 day): 3.3 g/dL
TBIL ([…], time 14 day): 0.2 mg/dL
TC ([…], time 14 day): 77.6 mg/dL
TG ([…], time 14 day): 129 mg/dL
TP ([…], time 14 day): 5.8 g/dL
gamma-GTP ([…], time 14 day): 1 IU/L
A/G ([…], time 28 day): 1.3
ALP ([…], time 28 day): 725.6 IU/L
ALT ([…], time 28 day): 39.4 IU/L
AST ([…], time 28 day): 67 IU/L
BUN ([…], time 28 day): 18.6 mg/dL
CRE ([…], time 28 day): 0.5 mg/dL
Ca ([…], time 28 day): 10.1 mg/dL
Cl ([…], time 28 day): 101.8 meq/L
DBIL ([…], time 28 day): 0.1 mg/dL
GLC ([…], time 28 day): 253 mg/dL
IP ([…], time 28 day): 6.7 mg/dL
K ([…], time 28 day): 3.4 meq/L
LDH ([…], time 28 day): 183.8 IU/L
Na ([…], time 28 day): 140.2 meq/L
PL ([…], time 28 day): 148 mg/dL
RALB ([…], time 28 day): 3.3 g/dL
TBIL ([…], time 28 day): 0.2 mg/dL
TC ([…], time 28 day): 70.6 mg/dL
TG ([…], time 28 day): 128 mg/dL
TP ([…], time 28 day): 5.8 g/dL
gamma-GTP ([…], time 28 day): 1.2 IU/L
